Laboratory results from US11179412B2, “Methods of treating conditions involving elevated inflammatory response” (University of Pittsburgh—Of the Commonwealth System of …, priority 2017, dated 2021).
Counter-ions that a name gives are not always drawn.

These compounds were tested on STING activation (IFNβ release) in iBMDMs (assay: IFNβ release ELISA after STING ligand (or LPS) stimulation, iBMDMs). Conditions: 16 h, 10 µM.
Type: cell-based, mouse
Excerpt: Commercially available enzyme-linked immunosorbent assay (ELISA) kits were used to measure the concentrations of mouse IFNβ (Thermo Fisher Scientific) or human IFNβ (Thermo Fisher Scientific) in culture medium according to the manufacturer's instructions. […]

Compound | fold increase in IFN-β release
C=C1C[C@@H]2[C@H](CC[C@]3(C)C(=O)CC[C@@H]23)[C@@]2(C)C=CC(=O)C=C12 [Exemestane] | 1.11 fold
CCCCCCCCc1ccc(CCC(N)(CO)CO)cc1 [Fingolimod (FTY720) HCl, Fingolimod] | 0.77 fold

Same assay, conditions: iBMDMs; 3′3′-cGAMP 10 μg/ml, 16 hours; compound 10 μM

Compound | fold increase in IFN-β release
CCn1c2ccccc2c2cc(Nc3ccnc(NCCCN4CCOCC4)n3)ccc21 [EHop-016] | 1.69 fold
CCN(c1cc(-c2ccc(CN3CCOCC3)cc2)cc(C(=O)NCc2c(C)cc(C)[nH]c2=O)c1C)C1CCOCC1 [EPZ-6438] | 1.03 fold
COc1cccc(C=NCCN=Cc2cccc(OC)c2[O-])c1[O-].[Cl-].[Mn+3] [EUK 134] | 1.10 fold
NC(=O)C1CCCc2c1[nH]c1ccc(Cl)cc21 (stereo not drawn) [EX 527 (Selisistat), Selisistat] | 0.98 fold
COc1cc2c(cc1Cc1cccc(Cl)c1F)c(=O)c(C(=O)O)cn2[C@H](CO)C(C)C [Elvitegravir (GS-9137, JTK-303), Elvitegravir] | 2.56 fold
CCCCCCCCCCCC1=C(O)C(=O)C=C(O)C1=O [Embelin] | 0.17 fold
OC[C@H]1O[C@@H](c2ccc(Cl)c(Cc3ccc(O[C@H]4CCOC4)cc3)c2)[C@H](O)[C@@H](O)[C@@H]1O [Empagliflozin (BI 10773), Empagliflozin] | 0.57 fold
C[C@H](N[C@@H](CCc1ccccc1)C(=O)O)C(=O)N1CCC[C@H]1C(=O)O.O.O [Enalaprilat Dihydrate] | 2.71 fold
CCN(CC)C(=O)/C(C#N)=C/c1cc(O)c(O)c([N+](=O)[O-])c1 [Entacapone] | 0.76 fold
CNC(=O)c1ccc(N2C(=S)N(c3ccc(C#N)c(C(F)(F)F)c3)C(=O)C2(C)C)cc1F [Enzalutamide (MDV3100), Enzalutamide] | 0.50 fold
Cn1cc(C2=C(c3cn(C4CCN(Cc5ccccn5)CC4)c4ccccc34)C(=O)NC2=O)c2ccccc21 [Enzastaurin (LY317615), Enzastaurin] | 1.02 fold
CCOc1ccccc1-n1c(C(C)N2CCN(C(=O)COc3ccc(Cl)cc3)CC2)nc2ccccc2c1=O (stereo not drawn) [Erastin] | 4.52 fold
COc1ccc2nc([S@@+]([O-])Cc3ncc(C)c(OC)c3C)[nH]c2c1 [Esomeprazole Sodium] | 0.95 fold
CCc1cccc2c3c([nH]c12)C(CC)(CC(=O)O)OCC3 (stereo not drawn) [Etodolac] | 0.35 fold
CCOC(=O)c1cncn1[C@H](C)c1ccccc1 [Etomidate] | 0.86 fold
CO[C@H]1C[C@@H]2CC[C@@H](C)[C@@](O)(O2)C(=O)C(=O)N2CCCC[C@H]2C(=O)O[C@H]([C@H](C)C[C@@H]2CC[C@@H](OCCO)[C@H](OC)C2)CC(=O)[C@H](C)/C=C(\C)[C@@H](O)[C@@H](OC)C(=O)[C@H](C)C[C@H](C)/C=C/C=C/C=C/1C [Everolimus (RAD001), Everolimus] | 1.01 fold
Cc1nc(C(=O)NCC(=O)O)c(O)c2ccc(Oc3ccccc3)cc12 [FG-4592] | 0.73 fold
CC1=C(C(=O)OC2CCCCC2)C(c2ccc([N+](=O)[O-])cc2)C2=C(CC(C)(C)CC2=O)N1 (stereo not drawn) [FLI-06] | 2.06 fold
CCOC(=O)C1=C(C)NC(C)=C(C(=O)OC)C1c1cccc(Cl)c1Cl (stereo not drawn) [Felodipine] | 0.69 fold
CCOC(=O)c1ccc(NC2CCCCC2)c(N)c1 [Ferrostatin-1 (Fer-1), Ferrostatin-1] | 2.54 fold
O=C(Nc1nc2cccc(-c3ccc(CN4CCS(=O)(=O)CC4)cc3)n2n1)C1CC1 [Filgotinib (GLPG0634), Filgotinib] | 2.35 fold
CC(C)(C)NC(=O)[C@H]1CC[C@H]2[C@@H]3CC[C@H]4NC(=O)C=C[C@]4(C)[C@H]3CC[C@]12C [Finasteride] | 0.85 fold

Compound | fold increase in IFN-β release
CC(C)n1c(/C=C/C(O)CC(O)CC(=O)O)c(-c2ccc(F)cc2)c2ccccc21 (stereo not drawn) [Fluvastatin Sodium] | 0.32 fold
COCCCC/C(=N\OCCN)c1ccc(C(F)(F)F)cc1 [Fluvoxamine maleate] | 1.80 fold
COc1ccc(C[C@@H](C)NC[C@H](O)c2ccc(O)c(NC=O)c2)cc1.COc1ccc(C[C@@H](C)NC[C@H](O)c2ccc(O)c(NC=O)c2)cc1.O=C(O)/C=C/C(=O)O [Formoterol Hemifumarate] | 1.76 fold
C=C[C@@]1(C)CC(=O)[C@]2(O)[C@@]3(C)[C@@H](O)CCC(C)(C)[C@@H]3[C@H](O)[C@H](OC(C)=O)[C@@]2(C)O1 [Forskolin] | 0.81 fold
COc1cc(Nc2ncc(F)c(Nc3ccc4c(n3)N(COP(=O)(O)O)C(=O)C(C)(C)O4)n2)cc(OC)c1OC [Fostamatinib (R788), Fostamatinib] | 0.69 fold
C[C@]12CC[C@@H]3c4ccc(O)cc4C[C@@H](CCCCCCCCC[S+]([O-])CCCC(F)(F)C(F)(F)F)[C@H]3[C@@H]1CC[C@@H]2O (stereo partly drawn) [Fulvestrant] | 0.52 fold
CN[C@@H](C)C(=O)N[C@H](C(=O)N1CCC[C@H]1C(=O)Nc1snnc1-c1ccccc1)C1CCCCC1 [GDC-0152] | 1.79 fold
CS(=O)(=O)N1CCN(Cc2cc3nc(-c4cccc5[nH]ncc45)nc(N4CCOCC4)c3s2)CC1 [GDC-0941] | 2.13 fold
CNc1nc(Nc2cn(C(C)(C)C#N)nc2C)ncc1C(F)(F)F [GNE-0877] | 1.32 fold
CCNc1nc(Nc2cc(F)c(C(=O)N3CCOCC3)cc2OC)ncc1C(F)(F)F [GNE-7915] | 2.41 fold
CNc1nc(Nc2cnn([C@H]3CCN(C4COC4)C[C@@H]3F)c2Cl)ncc1C(F)(F)F [GNE-9605] | 1.10 fold
NC(=O)c1cccc(-c2cc(Nc3ccc(OC(F)(F)F)cc3)ncn2)c1 [GNF-2] | 0.56 fold
O=C(NCCO)c1cccc(-c2cc(Nc3ccc(OC(F)(F)F)cc3)ncn2)c1 [GNF-5] | 2.94 fold
CC1=C(C(=O)Nc2cc3cn[nH]c3cc2F)C(c2ccc(C(F)(F)F)cc2)CC(=O)N1 (stereo not drawn) [GSK429286A] | 2.79 fold
C[C@@H](Oc1cc(-n2cnc3ccc(CN4CCN(C)CC4)cc32)sc1C(N)=O)c1ccccc1C(F)(F)F [GSK461364] | 0.21 fold
CCn1c(-c2nonc2N)nc2c(C#CC(C)(C)O)ncc(OC[C@H]3CCCNC3)c21 [GSK690693] | 1.12 fold
CC(C)c1noc(N2CCC(COc3ccc(-c4ccc(S(C)(=O)=O)cc4)nc3)CC2)n1 [GSK1292263] | 2.58 fold
CCc1cc(Nc2nccc(-c3c(-c4ccc(OC)c(C(=O)Nc5c(F)cccc5F)c4)nc4ccccn34)n2)c(OC)cc1N1CCC(N2CCN(S(C)(=O)=O)CC2)CC1 [GSK1904529A] | 1.05 fold
Cn1cc(-c2ccc3c(c2)CCN3C(=O)Cc2cccc(C(F)(F)F)c2)c2c(N)ncnc21 [GSK2606414] | 1.40 fold
Cc1cccc(CC(=O)N2CCc3c2ccc(-c2cn(C)c4ncnc(N)c24)c3F)n1 [GSK2656157] | 1.58 fold
CCOC(=O)CCNc1cc(N2CCc3ccccc3CC2)nc(-c2ccccn2)n1.Cl [GSK J4 HCl] | 0.40 fold
